Laboratory results as given in patent US20220257592A1, “METHODS OF TREATING CANCER” (HOFFMANN-LA ROCHE INC., priority 2019, published 2022).

Assay: Clinical trial safety, ALKA, STARTRK-1, STARTRK-2, STARTRK-NG (interim, N=355)
Conditions: for Balance disorder / Confusional state / Dizziness / Headache / Paresthesia: CNS metastases
[1] = no prior CNS irradiation (N=48)
[2] = among the 32 patients with hyperuricemic adverse reactions
[3] = among the 36 patients with mood disorders
[4] = among the 51 patients with sleep disturbances
[5] = among the 96 patients with cognitive impairment
[6] = among the 136 patients who experienced dizziness
[7] = clinically relevant adverse reactions in ≤10% of patients

In the case of `CN1CCN(c2ccc(C(=O)Nc3n[nH]c4ccc(Cc5cc(F)cc(F)c5)cc34)c(NC3CCOCC3)c2)CC1` [Entrectinib, N-[5-(3,5-difluorobenzyl)-1H-indazol-3-yl]-4-(4-methyl-piperazin-1-yl)-2-(tetrahydro-pyran-4-ylamino)-benzamide], the “CHF, median time to onset” value (12 patients with CHF, range: 11 days to 12 months) is reported as 2 months, the Congestive heart failure (355 patients) is reported as 3.4% and the “Congestive heart failure, Grade 3” value (355 patients) is reported as 2.3%. The “Hyperuricemia reported as adverse reactions with symptoms, as well as elevated uric acid levels” value (355 patients) was 9%, the “Increased ALT of any grade” value (355 patients) was 36% and the “Increased AST of any grade” value (355 patients) was 42%. The Balance disorder [1] was 4%, the Confusional state [1] was 2% and the Dizziness [1] was 31%. The Headache [1] was 13%, the Paresthesia [1] was 6% and the Balance disorder (prior CNS irradiation (N=90)) was 13%. The Confusional state (prior CNS irradiation (N=90)) was 11%, the Dizziness (prior CNS irradiation (N=90)) was 38% and the Headache (prior CNS irradiation (N=90)) was 21%. The Paresthesia (prior CNS irradiation (N=90)) was 20%, the “Abdominal pain, All Grades” value (N = 355) was 16% and the “Arthralgia, All Grades” value (N = 355) was 21%. The “Ataxia, All Grades” value (N = 355) was 17%, the “Back pain, All Grades” value (N = 355) was 12% and the “Cognitive impairment, All Grades” value (N = 355) was 27%. The “Constipation, All Grades” value (N = 355) was 46%, the “Cough, All Grades” value (N = 355) was 24% and the “Decreased appetite, All Grades” value (N = 355) was 13%. For the same compound, the “Dehydration, All Grades” value (N = 355) was 10%, the “Diarrhea, All Grades” value (N = 355) was 35% and the “Dizziness, All Grades” value (N = 355) was 38%. For the same compound, the “Dysesthesia, All Grades” value (N = 355) was 34%, the “Dysgeusia, All Grades” value (N = 355) was 44% and the “Dyspnea, All Grades” value (N = 355) was 30%. The “Edema, All Grades” value (N = 355) was 40%, the “Fatigue, All Grades” value (N = 355) was 48% and the “Headache, All Grades” value (N = 355) was 18%. For the same compound, the “Hypotension, All Grades” value (N = 355) was 18%, the “Increased weight, All Grades” value (N = 355) was 25% and the “Lung infection, All Grades” value (N = 355) was 10%. For the same compound, the “Mood disorders, All Grades” value (N = 355) was 10%, the “Muscular weakness, All Grades” value (N = 355) was 12% and the “Myalgia, All Grades” value (N = 355) was 28%. The “Nausea, All Grades” value (N = 355) was 34%, the “Pain in extremity, All Grades” value (N = 355) was 11% and the “Peripheral sensory neuropathy, All Grades” value (N = 355) was 18%. For the same compound, the “Pyrexia, All Grades” value (N = 355) was 21%, the “Rash, All Grades” value (N = 355) was 11% and the “Sleep (sleep disturbances), All Grades” value (N = 355) was 14%. For the same compound, the “Urinary tract infection, All Grades” value (N = 355) was 13%, the “Vision disorders, All Grades” value (N = 355) was 21% and the “Vomiting, All Grades” value (N = 355) was 24%. The “Abdominal pain, Grade ≥3” value (N = 355, Grades 3-5) was 0.6%, the “Arthralgia, Grade ≥3” value (N = 355, Grades 3-5) was 0.6% and the “Ataxia, Grade ≥3” value (N = 355, Grades 3-5) was 0.8%. The “Back pain, Grade ≥3” value (N = 355, Grades 3-5) was 1%, the “Cognitive impairment, Grade ≥3” value (N = 355, Grades 3-5) was 4.5% and the “Constipation, Grade ≥3” value (N = 355, Grades 3-5) was 0.6%. The “Cough, Grade ≥3” value (N = 355, Grades 3-5) was 0.3%, the “Decreased appetite, Grade ≥3” value (N = 355, Grades 3-5) was 0.3% and the “Dehydration, Grade ≥3” value (N = 355, Grades 3-5) was 1.1%. For the same compound, the “Diarrhea, Grade ≥3” value (N = 355, Grades 3-5) was 2.0%, the “Dizziness, Grade ≥3” value (N = 355, Grades 3-5) was 0.8% and the “Dysesthesia, Grade ≥3” value (N = 355, Grades 3-5) was 0.3%. For the same compound, the “Dysgeusia, Grade ≥3” value (N = 355, Grades 3-5) was 0.3%, the “Edema, Grade ≥3” value (N = 355, Grades 3-5) was 1.1% and the “Fatigue, Grade ≥3” value (N = 355, Grades 3-5) was 5%. For the same compound, the “Headache, Grade ≥3” value (N = 355, Grades 3-5) was 0.3%, the “Hypotension, Grade ≥3” value (N = 355, Grades 3-5) was 2.8% and the “Increased weight, Grade ≥3” value (N = 355, Grades 3-5) was 7%. The “Mood disorders, Grade ≥3” value (N = 355, Grades 3-5) was 0.6%, the “Muscular weakness, Grade ≥3” value (N = 355, Grades 3-5) was 0.8% and the “Myalgia, Grade ≥3” value (N = 355, Grades 3-5) was 1.1%. The “Nausea, Grade ≥3” value (N = 355, Grades 3-5) was 0.3%, the “Pain in extremity, Grade ≥3” value (N = 355, Grades 3-5) was 0.3% and the “Peripheral sensory neuropathy, Grade ≥3” value (N = 355, Grades 3-5) was 1.1%. The “Pyrexia, Grade ≥3” value (N = 355, Grades 3-5) was 0.8%, the “Rash, Grade ≥3” value (N = 355, Grades 3-5) was 0.8% and the “Sleep (sleep disturbances), Grade ≥3” value (N = 355, Grades 3-5) was 0.6%. For the same compound, the “Urinary tract infection, Grade ≥3” value (N = 355, Grades 3-5) was 2.3%, the “Vision disorders, Grade ≥3” value (N = 355, Grades 3-5) was 0.8% and the “Vomiting, Grade ≥3” value (N = 355, Grades 3-5) was 0.8%. For the same compound, the “CHF resolved following interruption or discontinuation and medical management” value (among the 12 patients with CHF) was 50%, the “entrectinib discontinued due to CHF” value (among the 12 patients with CHF) was 17% and the “entrectinib interrupted due to CHF” value (among the 12 patients with CHF) was 50%. For the same compound, the “Dose interruption due to hyperuricemia” value [2] was 6%, the “Dose reduction due to hyperuricemia” value [2] was 6% and the Required urate-lowering medication [2] was 34%. The “Discontinuation due to mood disorders” value [3] was “no patients discontinued”, the “Dose interruption due to mood disorders” value [3] was 6% and the “Dose reduction due to mood disorders” value [3] was 6%. For the same compound, the “Discontinuation due to sleep disturbances” value [4] was “no patients discontinued”, the “Dose reduction due to sleep disturbances” value [4] was 6% and the “Discontinued entrectinib due to cognitive adverse reactions” value [5] was 1%. For the same compound, the “Dose interruption due to cognitive adverse reactions” value [5] was 18%, the “Dose reduction due to cognitive adverse reactions” value [5] was 13% and the “Discontinued entrectinib due to dizziness” value [6] was 0.7%. The “Dose interruption due to dizziness” value [6] was 7%, the “Dose reduction due to dizziness” value [6] was “Ten” and the “Grade 3 dizziness” value [6] was 2.2%. It also gave a Dysphagia [7] of 10%, a Fall [7] of 8% and a Fractures [7] of 6%. It also gave a Hypoxia [7] of 4.2%, a Pleural effusion [7] of 8% and a Pulmonary embolism [7] of 3.9%. For the same compound, the QT prolongation [7] was 3.1%, the Syncope [7] was 3.9% and the “Increased AST or ALT leading to dose interruptions” value (first value of 'respectively') was 0.8%. For the same compound, the “Cognitive impairment: amnesia” value (human, in vivo) was 2.5%, the “Cognitive impairment: aphasia” value (human, in vivo) was 2.3% and the “Cognitive impairment: cognitive disorders” value (human, in vivo) was 8%. For the same compound, the “Cognitive impairment: confusional state” value (human, in vivo) was 7%, the “Cognitive impairment: delirium” value (human, in vivo) was 0.8% and the “Cognitive impairment: disturbance in attention” value (human, in vivo) was 4.8%. For the same compound, the “Cognitive impairment: hallucinations” value (human, in vivo) was 1.1% and the “Cognitive impairment: memory impairment” value (human, in vivo) was 3.7%.
